Where a name gives a salt, the structure may show the parent alone.
| SMILES | melting point |
| --- | --- |
| COc1cc2c(cc1OC)CN(C(=O)C1CCCN(CCC(=O)Nc3cccc(Cl)c3)C1)CC2 (centres unmarked) (as salt: HCl) [Example 12] | 181 to 185 °C |
| COc1cc2c(cc1OC)CN(C(=O)C1CCCN(CCC(=O)Nc3ccc(OC)c(C(F)(F)F)c3)C1)CC2 (centres unmarked) (as salt: HCl) [Example 13] | 166 to 168 °C |
| COc1cc2c(cc1OC)CN(C(=O)C1CCCN(CCC(=O)Nc3ccc4ncsc4c3)C1)CC2 (centres unmarked) (as salt: HCl) [Example 14] | 183 to 185 °C |
| COc1cc(NC(=O)CCN2CCCC(C(=O)N3CCc4cc(OC)c(OC)cc4C3)C2)ccc1C (centres unmarked) (as salt: HCl) [Example 15] | 171 to 173 °C |
| COc1cc2c(cc1OC)CN(C(=O)C1CCCN(CCC(=O)Nc3ccc(C)c(F)c3)C1)CC2 (centres unmarked) (as salt: HCl) [Example 16] | 183 to 185 °C |
| COc1cc2c(cc1OC)CN(C(=O)C1CCN(CCC(=O)Nc3ccc4c(c3)OCO4)CC1)CC2 (as salt: HCl) [Example 19] | 203 to 206 °C |
| COc1cc2c(cc1OC)C(C)(C)CN(C(=O)C1CCCN(CCC(=O)Nc3ccc4c(c3)OCO4)C1)C2 (centres unmarked) (as salt: HCl) [Example 25] | 225 to 228 °C |
| COc1cc2c(cc1OC)CN(C(=O)[C@@H]1CCCN(CCNC(=O)c3ccc(F)cc3)C1)CC2 (as salt: salt) (hydrate or solvate) [Example 49] | 197 to 199 °C |
| COc1cc2c(cc1OC)CN(C(=O)[C@H]1CCCN(CCNC(=O)c3ccc(F)cc3)C1)CC2 (as salt: salt) (hydrate or solvate) [Example 50] | 187 to 191 °C |
| COc1ccc2c(c1)CCN(C(=O)C1CCCN(CCC(=O)Nc3ccc4c(c3)OCO4)C1)C2 (centres unmarked) (as salt: salt) [Example 17] | 179 to 180 °C |
| O=C(CCN1CCCC(C(=O)N2CCc3ccccc3C2)C1)Nc1ccc2c(c1)OCO2 (centres unmarked) (as salt: salt) [Example 18] | 195 to 196 °C |
| COc1cc2c(cc1OC)CN(C(=O)C1CCCN(CCC(=O)Nc3ccc4c(c3)OCO4)C1)CCC2 (centres unmarked) (as salt: salt) [Example 20] | 180 to 181 °C |
| COc1ccc(NC(=O)CCN2CCCC(C(=O)N3CCc4cc(OC)c(OC)cc4C3)C2)cn1 (centres unmarked) (as salt: salt) [Example 21] | 182 to 185 °C |
| COc1ccc(C(=O)NCCN2CCCC(C(=O)N3CCc4cc(OC)c(OC)cc4C3)C2)cc1C (centres unmarked) (as salt: salt) [Example 26] | 114 to 117 °C |
| COc1ccc(C(=O)NCCN2CCCC(C(=O)N3CCc4cc(OC)c(OC)cc4C3)C2)cc1F (centres unmarked) (as salt: salt) [Example 27] | 113 to 116 °C |
| COc1cc(C(=O)NCCN2CCCC(C(=O)N3CCc4cc(OC)c(OC)cc4C3)C2)ccc1C (centres unmarked) (as salt: salt) [Example 28] | 125 to 128 °C |
| COc1cc2c(cc1OC)CN(C(=O)C1CCCN(CCNC(=O)c3ccc(F)c(F)c3)C1)CC2 (centres unmarked) (as salt: salt) [Example 29] | 120 to 124 °C |
| COc1cc2c(cc1OC)CN(C(=O)C1CCCN(CCNC(=O)c3ccc4c(c3)OCCO4)C1)CC2 (centres unmarked) (as salt: salt) [Example 30] | 126 to 130 °C |

| SMILES | melting point |
| --- | --- |
| COc1cc2c(cc1OC)CN(C(=O)C1CCCN(CCNC(=O)c3ccc4c(c3)OC(F)(F)O4)C1)CC2 (centres unmarked) (as salt: salt) [Example 31] | 113 to 116 °C |
| CCOc1ccc(C(=O)NCCN2CCCC(C(=O)N3CCc4cc(OC)c(OC)cc4C3)C2)cc1 (centres unmarked) (as salt: salt) [Example 32] | 125 to 127 °C |
| COc1cc2c(cc1OC)CN(C(=O)C1CCCN(CCNC(=O)c3ccc(OC(C)C)cc3)C1)CC2 (centres unmarked) (as salt: salt) [Example 33] | 116 to 119 °C |
| COc1cc2c(cc1OC)CN(C(=O)C1CCCN(CCNC(=O)c3ccc4c(c3)OCC(=O)N4C)C1)CC2 (centres unmarked) (as salt: salt) [Example 34] | 130 to 138 °C |
| COc1cc2c(cc1OC)CN(C(=O)C1CCCN(CCNC(=O)c3ccc4c(c3)N(C)C(=O)CO4)C1)CC2 (centres unmarked) (as salt: salt) [Example 35] | 124 to 133 °C |
| COc1cc2c(cc1OC)CN(C(=O)C1CCCN(CCNC(=O)c3ccc(F)cc3)C1)CC2 (centres unmarked) (as salt: salt) [Example 40] | 137 to 141 °C |
| COc1cc2c(cc1OC)CN(C(=O)C1CCCN(CCNC(=O)c3cccc(Br)c3)C1)CC2 (centres unmarked) (as salt: salt) [Example 41] | 133 to 136 °C |
| COc1cc(OC)cc(C(=O)NCCN2CCCC(C(=O)N3CCc4cc(OC)c(OC)cc4C3)C2)c1 (centres unmarked) (as salt: salt) [Example 42] | 166 to 167 °C |
| COc1cc2c(cc1OC)CN(C(=O)C1CCCN(CCNC(=O)c3ccc(F)cc3F)C1)CC2 (centres unmarked) (as salt: salt) [Example 43] | 178 to 180 °C |
| COc1cc2c(cc1OC)CN(C(=O)C1CCCN(CCNC(=O)c3ccc(F)c(C(F)(F)F)c3)C1)CC2 (centres unmarked) (as salt: salt) [Example 44] | 186 to 188 °C |
| COc1cc2c(cc1OC)CN(C(=O)C1CCCN(CCNC(=O)c3ccc(F)c(Cl)c3)C1)CC2 (centres unmarked) (as salt: salt) [Example 45] | 111 to 112 °C |
| COc1cc2c(cc1OC)C(C)(C)CN(C(=O)C1CCCN(CCNC(=O)c3ccc4c(c3)OCO4)C1)C2 (centres unmarked) (as salt: salt) [Example 51] | 138 to 140 °C |
| COc1cc2c(cc1OC)CN(C(=O)[C@@H]1CCCN(CCC(=O)Nc3ccc4c(c3)OCO4)C1)CC2 (as salt: tartrate) [Example 5, (−)-3-[(R)-3-(6,7-dimethoxy-1,2,3,4-tetrahydroisoquinoline-2-carbonyl)piperidino]-N-(3,4-methylenedioxyphenyl)propanamide L-tartrate] | 174 to 175 °C |
| COc1cc2c(cc1OC)CN(C(=O)[C@H]1CCCN(CCC(=O)Nc3ccc4c(c3)OCO4)C1)CC2 (as salt: tartrate) [Example 6, (+)-3-[(S)-3-(6,7-dimethoxy-1,2,3,4-tetrahydroisoquinoline-2-carbonyl)piperidino]-N-(3,4-methylenedioxyphenyl)propanamide D-tartrate] | 175 to 177 °C |
| COc1ccc(NC(=O)CCN2CCCC(C(=O)N3CCc4cc(OC)c(OC)cc4C3)C2)cc1OC (racemic) (as salt: HCl) [Example 1, (±)-3-[3-(6,7-dimethoxy-1,2,3,4-tetrahydroisoquinoline-2-carbonyl)piperidino]-N-(3,4-dimethoxyphenyl)propanamide hydrochloride] | 154 to 156 °C |
| COc1cc2c(cc1OC)CN(C(=O)C1CCCN(CCC(=O)Nc3ccc4c(c3)OCO4)C1)CC2 (racemic) (as salt: HCl) [Example 2, (±)-3-[3-(6,7-dimethoxy-1,2,3,4-tetrahydroisoquinoline-2-carbonyl)piperidino]-N-(3,4-methylenedioxyphenyl)propanamide hydrochloride] | 226 to 228 °C |
| COc1ccc(NC(=O)CCN2CCCC(C(=O)N3CCc4cc(OC)c(OC)cc4C3)C2)cc1 (racemic) (as salt: HCl) [Example 4, (±)-3-[3-(6,7-dimethoxy-1,2,3,4-tetrahydroisoquinoline-2-carbonyl)piperidino]-N-(4-methoxyphenyl)propanamide hydrochloride] | 211 to 213 °C |

— patent publication US6573279B1, “Isoquinoline derivatives or salts thereof” (priority 1999, dated 2003)
